Data published in ChEMBL document CHEMBL5038625, “Application of the dual-tail approach for the design and synthesis of novel Thiopyrimidine-Benzenesulfonamide hybrids as selective carbonic anhydrase inhibitors” (Eur J Med Chem, 2022).

Tests used:
[1] = system: OVCAR-3; experiment: Antiproliferative activity against human OVCAR-3 cells assessed as cell growth inhibition at 10 uM incubated for 24 hrs by sulforhodamine B assay; format: functional; conditions: read-out: GI
[2] = system: NCI-H226; experiment: Antiproliferative activity against human NCI-H226 cells assessed as cell growth inhibition at 10 uM incubated for 24 hrs by sulforhodamine B assay; format: functional; conditions: read-out: GI
[3] = system: HOP-92; experiment: Antiproliferative activity against human HOP-92 cells assessed as cell growth inhibition at 10 uM incubated for 24 hrs by sulforhodamine B assay; format: functional; conditions: read-out: GI
[4] = system: RXF 393; experiment: Antiproliferative activity against human RXF 393 cells assessed as cell growth inhibition at 10 uM incubated for 24 hrs by sulforhodamine B assay; format: functional; conditions: read-out: GI
[5] = system: UACC-62; experiment: Antiproliferative activity against human UACC-62 cells assessed as cell growth inhibition at 10 uM incubated for 24 hrs by sulforhodamine B assay; format: functional; conditions: read-out: GI
[6] = system: MCF7; experiment: Antiproliferative activity against human MCF7 cells assessed as cell growth inhibition at 10 uM incubated for 24 hrs by sulforhodamine B assay; format: functional; conditions: read-out: GI
[7] = system: UO-31; experiment: Antiproliferative activity against human UO-31 cells assessed as cell growth inhibition at 10 uM incubated for 24 hrs by sulforhodamine B assay; format: functional; conditions: read-out: GI
[8] = system: NCI-H23; experiment: Antiproliferative activity against human NCI-H23 cells assessed as cell growth inhibition at 10 uM incubated for 24 hrs by sulforhodamine B assay; format: functional; conditions: read-out: GI
[9] = target: Carbonic anhydrase 9 (Homo sapiens, UniProt Q16790); experiment: Inhibition of human CA9 preincubated for 15 mins by phenol red dye based stopped flow CO2 hydration assay
[10] = system: CAKI-1; experiment: Antiproliferative activity against human CAKI-1 cells assessed as cell growth inhibition at 10 uM incubated for 24 hrs by sulforhodamine B assay; format: functional; conditions: read-out: GI
[11] = system: SF-539; experiment: Antiproliferative activity against human SF-539 cells assessed as cell growth inhibition at 10 uM incubated for 24 hrs by sulforhodamine B assay; format: functional; conditions: read-out: GI
[12] = system: K562; experiment: Antiproliferative activity against human K562 cells assessed as cell growth inhibition at 10 uM incubated for 24 hrs by sulforhodamine B assay; format: functional; conditions: read-out: GI
[13] = system: NCI/ADR-RES; experiment: Antiproliferative activity against human NCI-ADR-RES cells assessed as cell growth inhibition at 10 uM incubated for 24 hrs by sulforhodamine B assay; format: functional; conditions: read-out: GI
[14] = system: Hs-578T; experiment: Antiproliferative activity against human HS-578T cells assessed as cell growth inhibition at 10 uM incubated for 24 hrs by sulforhodamine B assay; format: functional; conditions: read-out: GI
[15] = system: OVCAR-8; experiment: Antiproliferative activity against human OVCAR-8 cells assessed as cell growth inhibition at 10 uM incubated for 24 hrs by sulforhodamine B assay; format: functional; conditions: read-out: GI
[16] = system: OVCAR-4; experiment: Antiproliferative activity against human OVCAR-4 cells assessed as cell growth inhibition at 10 uM incubated for 24 hrs by sulforhodamine B assay; format: functional; conditions: read-out: GI
[17] = system: SF-295; experiment: Antiproliferative activity against human SF-295 cells assessed as cell growth inhibition at 10 uM incubated for 24 hrs by sulforhodamine B assay; format: functional; conditions: read-out: GI
[18] = system: IGROV-1; experiment: Antiproliferative activity against human IGROV-1 cells assessed as cell growth inhibition at 10 uM incubated for 24 hrs by sulforhodamine B assay; format: functional; conditions: read-out: GI
[19] = system: RPMI-8226; experiment: Antiproliferative activity against human RPMI-8226 cells assessed as cell growth inhibition at 10 uM incubated for 24 hrs by sulforhodamine B assay; format: functional; conditions: read-out: GI
[20] = system: NCI-H460; experiment: Antiproliferative activity against human NCI-H460 cells assessed as cell growth inhibition at 10 uM incubated for 24 hrs by sulforhodamine B assay; format: functional; conditions: read-out: GI
[21] = system: M14; experiment: Antiproliferative activity against human M14 cells assessed as cell growth inhibition at 10 uM incubated for 24 hrs by sulforhodamine B assay; format: functional; conditions: read-out: GI
[22] = system: SF-268; experiment: Antiproliferative activity against human SF-268 cells assessed as cell growth inhibition at 10 uM incubated for 24 hrs by sulforhodamine B assay; format: functional; conditions: read-out: GI
[23] = system: A549; experiment: Antiproliferative activity against human A549 cells assessed as cell growth inhibition at 10 uM incubated for 24 hrs by sulforhodamine B assay; format: functional; conditions: read-out: GI
[24] = system: U-251; experiment: Antiproliferative activity against human U-251 cells assessed as cell growth inhibition at 10 uM incubated for 24 hrs by sulforhodamine B assay; format: functional; conditions: read-out: GI
[25] = system: SK-MEL-5; experiment: Antiproliferative activity against human SK-MEL-5 cells assessed as cell growth inhibition at 10 uM incubated for 24 hrs by sulforhodamine B assay; format: functional; conditions: read-out: GI
[26] = system: EKVX; experiment: Antiproliferative activity against human EKVX cells assessed as cell growth inhibition at 10 uM incubated for 24 hrs by sulforhodamine B assay; format: functional; conditions: read-out: GI
[27] = system: PC-3; experiment: Antiproliferative activity against human PC-3 cells assessed as cell growth inhibition at 10 uM incubated for 24 hrs by sulforhodamine B assay; format: functional; conditions: read-out: GI
[28] = system: COLO 205; experiment: Antiproliferative activity against human COLO 205 cells assessed as cell growth inhibition at 10 uM incubated for 24 hrs by sulforhodamine B assay; format: functional; conditions: read-out: GI
[29] = system: SR; experiment: Antiproliferative activity against human SR cells assessed as cell growth inhibition at 10 uM incubated for 24 hrs by sulforhodamine B assay; format: functional; conditions: read-out: GI
[30] = system: A498; experiment: Antiproliferative activity against human A498 cells assessed as cell growth inhibition at 10 uM incubated for 24 hrs by sulforhodamine B assay; format: functional; conditions: read-out: GI
[31] = system: HCT-15; experiment: Antiproliferative activity against human HCT-15 cells assessed as cell growth inhibition at 10 uM incubated for 24 hrs by sulforhodamine B assay; format: functional; conditions: read-out: GI
[32] = system: HT-29; experiment: Antiproliferative activity against human HT-29 cells assessed as cell growth inhibition at 10 uM incubated for 24 hrs by sulforhodamine B assay; format: functional; conditions: read-out: GI
[33] = system: MDA-MB-435; experiment: Antiproliferative activity against human MDA-MB-435 cells assessed as cell growth inhibition at 10 uM incubated for 24 hrs by sulforhodamine B assay; format: functional; conditions: read-out: GI
[34] = system: HL-60; experiment: Antiproliferative activity against human HL-60 cells assessed as cell growth inhibition at 10 uM incubated for 24 hrs by sulforhodamine B assay; format: functional; conditions: read-out: GI
[35] = system: SNB-75; experiment: Antiproliferative activity against human SNB-75 cells assessed as cell growth inhibition at 10 uM incubated for 24 hrs by sulforhodamine B assay; format: functional; conditions: read-out: GI
[36] = system: MDA-MB-231; experiment: Antiproliferative activity against human MDA-MB-231 cells assessed as cell growth inhibition at 10 uM incubated for 24 hrs by sulforhodamine B assay; format: functional; conditions: read-out: GI
[37] = system: ACHN; experiment: Antiproliferative activity against human ACHN cells assessed as cell growth inhibition at 10 uM incubated for 24 hrs by sulforhodamine B assay; format: functional; conditions: read-out: GI
[38] = system: HCT-116; experiment: Antiproliferative activity against human HCT-116 cells assessed as cell growth inhibition at 10 uM incubated for 24 hrs by sulforhodamine B assay; format: functional; conditions: read-out: GI
[39] = system: KM12; experiment: Antiproliferative activity against human KM12 cells assessed as cell growth inhibition at 10 uM incubated for 24 hrs by sulforhodamine B assay; format: functional; conditions: read-out: GI
[40] = system: T47D; experiment: Antiproliferative activity against human T47D cells assessed as cell growth inhibition at 10 uM incubated for 24 hrs by sulforhodamine B assay; format: functional; conditions: read-out: GI
[41] = system: SNB-19; experiment: Antiproliferative activity against human SNB-19 cells assessed as cell growth inhibition at 10 uM incubated for 24 hrs by sulforhodamine B assay; format: functional; conditions: read-out: GI
[42] = system: DU-145; experiment: Antiproliferative activity against human DU-145 cells assessed as cell growth inhibition at 10 uM incubated for 24 hrs by sulforhodamine B assay; format: functional; conditions: read-out: GI
[43] = system: CCRF-CEM; experiment: Antiproliferative activity against human CCRF-CEM cells assessed as cell growth inhibition at 10 uM incubated for 24 hrs by sulforhodamine B assay; format: functional; conditions: read-out: GI
[44] = system: SW-620; experiment: Antiproliferative activity against human SW-620 cells assessed as cell growth inhibition at 10 uM incubated for 24 hrs by sulforhodamine B assay; format: functional; conditions: read-out: GI
[45] = system: MDA-MB-468; experiment: Antiproliferative activity against human MDA-MB-468 cells assessed as cell growth inhibition at 10 uM incubated for 24 hrs by sulforhodamine B assay; format: functional; conditions: read-out: GI
[46] = system: MOLT-4; experiment: Antiproliferative activity against human MOLT-4 cells assessed as cell growth inhibition at 10 uM incubated for 24 hrs by sulforhodamine B assay; format: functional; conditions: read-out: GI
[47] = system: LOX IMVI; experiment: Antiproliferative activity against human LOX IMVI cells assessed as cell growth inhibition at 10 uM incubated for 24 hrs by sulforhodamine B assay; format: functional; conditions: read-out: GI
[48] = system: SN12C; experiment: Antiproliferative activity against human SN12C cells assessed as cell growth inhibition at 10 uM incubated for 24 hrs by sulforhodamine B assay; format: functional; conditions: read-out: GI
[49] = Antiproliferative activity against human […] cells assessed as cell growth inhibition at 10 uM incubated for 24 hrs by sulforhodamine B assay; format: functional; conditions: read-out: GI
[50] = system: NCI-H522; experiment: Antiproliferative activity against human NCI-H522 cells assessed as cell growth inhibition at 10 uM incubated for 24 hrs by sulforhodamine B assay; format: functional; conditions: read-out: GI

SMILES: CC(C)c1nc(SCC(=O)c2ccc(Br)cc2)nc(Nc2cccc(S(N)(=O)=O)c2)c1C#N
- inhibition of growth at 10 µM [1]: 6.91%
- inhibition of growth at 10 µM [2]: 6.88%
- inhibition of growth at 10 µM [3]: 15%
- inhibition of growth at 10 µM [4]: 8.85%
- inhibition of growth at 10 µM [5]: 8.44%
- inhibition of growth at 10 µM [6]: 12.4%
- inhibition of growth at 10 µM [7]: 20.9%
- inhibition of growth at 10 µM [8]: 5.54%
- Ki [9]: 97.4 nM
- inhibition of growth at 10 µM [10]: 12.7%
- inhibition of growth at 10 µM [11]: 5.74%

SMILES: COc1ccc(OC)c(-c2nc(SCC(=O)c3ccc(Br)cc3)nc(Nc3cccc(S(N)(=O)=O)c3)c2C#N)c1
- inhibition of growth at 10 µM [12]: 29.5%
- inhibition of growth at 10 µM [13]: 8.77%
- inhibition of growth at 10 µM [14]: 25.5%
- inhibition of growth at 10 µM [15]: 14.2%
- inhibition of growth at 10 µM [16]: 24.1%
- inhibition of growth at 10 µM [17]: 13.3%
- inhibition of growth at 10 µM [18]: 8.33%
- inhibition of growth at 10 µM [19]: 18.5%
- inhibition of growth at 10 µM [20]: 22.5%
- inhibition of growth at 10 µM [21]: 6.53%
- inhibition of growth at 10 µM [1]: 22.4%
- inhibition of growth at 10 µM [22]: 23.7%
- inhibition of growth at 10 µM [23]: 26.7%
- inhibition of growth at 10 µM [24]: 19.1%
- inhibition of growth at 10 µM [25]: 5.18%
- inhibition of growth at 10 µM [2]: 15.2%
- inhibition of growth at 10 µM [26]: 18.4%
- inhibition of growth at 10 µM [27]: 34.1%
- inhibition of growth at 10 µM [28]: 14.6%
- inhibition of growth at 10 µM [29]: 30.5%
- inhibition of growth at 10 µM [30]: 22.5%
- inhibition of growth at 10 µM [4]: 39.8%
- inhibition of growth at 10 µM [31]: 23.4%
- inhibition of growth at 10 µM [32]: 9.87%
- inhibition of growth at 10 µM [33]: 15.4%
- inhibition of growth at 10 µM [34]: 10.3%
- inhibition of growth at 10 µM [35]: 23.1%
- inhibition of growth at 10 µM [36]: 23.8%
- inhibition of growth at 10 µM [37]: 20.2%
- inhibition of growth at 10 µM [38]: 27.9%
- inhibition of growth at 10 µM [5]: 11.6%
- inhibition of growth at 10 µM [39]: 11.8%
- inhibition of growth at 10 µM [40]: 23.9%
- inhibition of growth at 10 µM [41]: 16.4%
- inhibition of growth at 10 µM [42]: 12.9%
- inhibition of growth at 10 µM [6]: 28.6%
- inhibition of growth at 10 µM [43]: 20.1%
- inhibition of growth at 10 µM [7]: 50.2%
- inhibition of growth at 10 µM [44]: 13.9%
- inhibition of growth at 10 µM [45]: 15.4%
- inhibition of growth at 10 µM [46]: 45.3%
- inhibition of growth at 10 µM [47]: 16.6%
- inhibition of growth at 10 µM [48]: 18.1%
- inhibition of growth at 10 µM [8]: 7.31%
- inhibition of growth at 10 µM [49]: 14%
- Ki [9]: 60.1 nM
- inhibition of growth at 10 µM [50]: 5.79%
- inhibition of growth at 10 µM [10]: 52.1%
- inhibition of growth at 10 µM [11]: 16.5%
